These results are taken from patent US20260217701A1, “SELECTIVE BET INHIBITORS AND USES THEREOF” (Tay Therapeutics Limited, priority 2022, published 2026).

One experiment has as its system BET BD2. Conditions: public sources, not a head-to-head trial, cited from earlier work; for BD2: comparator BET inhibitors; for Selectivity (BD1/BD2): comparator.
The target in the next experiment is T1, BRD4 BD2 (Homo sapiens, UniProt O60885).
T1 construct: HEK293 cells were transfected using NanoLuc-BRD4-BD1 or NanoLuc-BRD4-BD2 fusion vectors
The experiment can be described thus: NanoBRET bromodomain assay, NanoLuc-BRD4-BD2 in HEK293 cells. In kind it is binding. Conditions: for Fold Selectivity BRD4 BD1/BD2: IC50 BD1/IC50 BD2, qualitative if an IC50 is at the upper limit. Here is the method:
(§1) Plates were then incubated at 37° C.+5% CO2 incubator for 2 hours.
(§2) Fold Selectivity Calculated (IC50 BD1/IC50 BD2).
A general note: BRET reads energy transfer from a luciferase to a nearby fluorophore.

A further experiment addresses T2, BRD4 BD1 (Homo sapiens, UniProt O60885).
T2 construct: HEK293 cells were transfected using NanoLuc-BRD4-BD1 or NanoLuc-BRD4-BD2 fusion vectors
The experiment can be described thus: NanoBRET bromodomain assay, NanoLuc-BRD4-BD1 in HEK293 cells. In kind it is binding. How it is done:
Exemplary compounds of the disclosure are active against BRD4 BD2 and selective over BRD4 BD1. BRD4 is a representative example of the BET family, as the binding sites of all BET family members are structurally similar. […] IC50s and fold selectivity's are determined as described below and are represented in Table 1.
as §1, §2

Where two headings read alike, the source gives them in different places.

For the compound `Cc1sc2c(c1C)C(c1ccc(Cl)cc1)=N[C@@H](CC(=O)Nc1ccc(O)cc1)c1nnc(C)n1-2` [MK-8628/OTX-015], in the experiment on BET BD2, the BD2 is listed as 26 nM. Besides, the “Selectivity (BD1/BD2)” value in the experiment on BET BD2 (nanoBRET assay) is on record as 1.5x.

Regarding `CNc1nc(-c2nc3ccc(N4CCN(C)CC4)cc3n2Cc2ccccc2)cn2c(C)nnc12` [BI-894999], the BD2 in the experiment with BET BD2 is 41 nM. In addition, the “Selectivity (BD1/BD2)” value in the experiment on BET BD2 (nanoBRET assay) is recorded as 0.1x.

For the compound `Cc1noc2c1-c1ccccc1C(c1ccc(Cl)cc1)=N[C@H]2CC(N)=O` [Pelabresib], the “Selectivity (BD1/BD2)” value in the experiment with BET BD2 (FRET) is reported as 5x (FRET). Also, the BD2 in the experiment on BET BD2 was 17 nM.

In the case of NUV-868, the “Selectivity (BD1/BD2)” value in the experiment on BET BD2 (FRET) is 1,460x (FRET). In the experiment with BET BD2, the BD2 is listed as 2 nM.

What is called IC50 is the point on the concentration scale where inhibition reaches its midpoint. As for `Cc1cccc(C)c1Oc1cn(C2CC2)c(=O)cc1-c1cn(C)c(=O)c2[nH]c(-c3cn(C)nc3C)cc12` [Example 94], on BRD4 BD2, the IC50 was 10 to 50 nM; the “Fold Selectivity BRD4 BD1/BD2” value is “xxx (Fold >200 and ≤1000)”. The compound further gave an IC50 at BRD4 BD1 of more than 1000 nM.

Take `Cn1cc(-c2ccccc2)c(-c2cn(C)c(=O)c3[nH]c(-c4ccc(C5COC5)cc4)cc23)cc1=O` [Example 44, 6-methyl-4-(1-methyl-2-oxo-5-phenyl-1,2-dihydropyridin-4-yl)-2-(4-(oxetan-3-yl)phenyl)-1,6-dihydro-7H-pyrrolo[2,3-c]pyridin-7-one]: on BRD4 BD2, the IC50 was less than 10 nM and the “Fold Selectivity BRD4 BD1/BD2” value was “xxxx (Fold >1000)”. Also, at BRD4 BD1, the IC50 was more than 1000 nM.

Turning to `Cn1cc(-c2ccccc2C(F)F)c(-c2cn(C)c(=O)c3[nH]c(-c4ccc(F)cc4F)cc23)cc1=O` [Example 70], at BRD4 BD2, the IC50 lay within 200 to 1000 nM; the “Fold Selectivity BRD4 BD1/BD2” value is “x (Fold >2 and ≤50)”. The compound also gave an IC50 at BRD4 BD1 of more than 1000 nM.

For `COCCOc1ccc(-c2cn(C)c(=O)cc2-c2cn(C)c(=O)c3[nH]c(-c4cnn(C(F)(F)F)c4)cc23)cc1` [Example 9, 4-(5-(4-(2-methoxyethoxy)phenyl)-1-methyl-2-oxo-1,2-dihydropyridin-4-yl)-6-methyl-2-(1-(trifluoromethyl)-1H-pyrazol-4-yl)-1,6-dihydro-7H-pyrrolo[2,3-c]pyridin-7-one], at BRD4 BD2, the IC50 is less than 10 nM and the “Fold Selectivity BRD4 BD1/BD2” value is “xxxx (Fold >1000)”. This compound also gave a half-inhibitory concentration (IC50) on BRD4 BD1 of more than 1000 nM.

Consider `Cc1cccc(C)c1Oc1cn(C)c(=O)cc1-c1cn(C)c(=O)c2[nH]c(-c3ccc(CO)cc3F)cc12` [Example 58, 4-(5-(2,6-dimethylphenoxy)-1-methyl-2-oxo-1,2-dihydropyridin-4-yl)-2-(2-fluoro-4-(hydroxymethyl)phenyl)-6-methyl-1,6-dihydro-7H-pyrrolo[2,3-c]pyridin-7-one], for which, on BRD4 BD2, the IC50 is less than 10 nM and the “Fold Selectivity BRD4 BD1/BD2” value is on record as “xxxx (Fold >1000)”. The IC50 against BRD4 BD1 was more than 1000 nM.

Regarding `Cn1cc(-c2cc(=O)n(C3CC3)cc2-c2ccccc2)c2cc(-c3cccc(F)c3F)[nH]c2c1=O` [Example 48, 4-(1-cyclopropyl-2-oxo-5-phenyl-1,2-dihydropyridin-4-yl)-2-(2,3-difluorophenyl)-6-methyl-1,6-dihydro-7H-pyrrolo[2,3-c]pyridin-7-one], at BRD4 BD2, the 50% inhibitory concentration (IC50) is less than 10 nM and the “Fold Selectivity BRD4 BD1/BD2” value was “xxxx (Fold >1000)”. Moreover, the IC50 against BRD4 BD1 is more than 1000 nM.

With `Cn1cc(-c2ccccc2)c(-c2cn(C)c(=O)c3[nH]c(-c4cccn(C)c4=O)cc23)cc1=O` [Example 1, 6-methyl-2-(1-methyl-2-oxo-1,2-dihydropyridin-3-yl)-4-(1-methyl-2-oxo-5-phenyl-1,2-dihydropyridin-4-yl)-1,6-dihydro-7H-pyrrolo[2,3-c]pyridin-7-one], on BRD4 BD2, the IC50 fell in the range of 10 to 50 nM; the “Fold Selectivity BRD4 BD1/BD2” value is “xxx (Fold >200 and ≤1000)”. This compound registered a half-inhibitory concentration (IC50) on BRD4 BD1 of more than 1000 nM.

On to `Cc1cccc(C)c1Oc1cn(C)c(=O)cc1-c1cn(C)c(=O)c2[nH]c(-c3cnc(C(C)C)s3)cc12` [Example 54, 4-(5-(2,6-dimethylphenoxy)-1-methyl-2-oxo-1,2-dihydropyridin-4-yl)-2-(2-isopropylthiazol-5-yl)-6-methyl-1,6-dihydro-7H-pyrrolo[2,3-c]pyridin-7-one], for which the results for the IC50 at BRD4 BD2 and on BRD4 BD1 were less than 10 nM and more than 1000 nM, respectively. Besides, the “Fold Selectivity BRD4 BD1/BD2” value on BRD4 BD2 was “xxxx (Fold >1000)”.

As for `Cc1cccc(C)c1Oc1cn(C)c(=O)cc1-c1cn(C)c(=O)c2[nH]c(-c3cccc(CO)c3F)cc12` [Example 57, 4-(5-(2,6-dimethylphenoxy)-1-methyl-2-oxo-1,2-dihydropyridin-4-yl)-2-(2-fluoro-3-(hydroxymethyl)phenyl)-6-methyl-1,6-dihydro-7H-pyrrolo[2,3-c]pyridin-7-one], on BRD4 BD2, the IC50 was less than 10 nM and the “Fold Selectivity BRD4 BD1/BD2” value was “xxxx (Fold >1000)”. The same compound yielded a half-inhibitory concentration (IC50) on BRD4 BD1 of more than 1000 nM.
